Values belong to the molecule of their own block, whether it stands above or below them.
Assays:
Format in all cases: biochemical
[1] = target: T1, cathepsin B in SHSY5Y human neuroblastoma cell homogenate (Homo sapiens, UniProt P07858); test: Cathepsin B activity in neuroblastoma cell homogenates in presence of inhibitors; settings: inhibitor 1 μM, Z-Arg-Arg-AMC substrate, pH 5.5
T1 construct: endogenous in cells; host or cells: SH-SY5Y human neuroblastoma cells
Method: Cathepsin B in human neuroblastoma cells treated with inhibitors. Neuroblastoma cells (human SHSY5Y) were grown in media consisting of 50% MEMalpha, 50% F12-K, 10% heat-inactivated FBS at 37° C. in an atmosphere of 95% air and 5% CO2. Firstly, cell homogenates were prepared by collection of cells in 0.32 M sucrose and freeze-thawing. Secondly, cells were incubated with Z-Arg-Lys-AOMK or CA-074Me for 6 hours at 37° C., and washed 3 times in phosphate-buffered saline and homogenates were prepared in 0.32 M sucrose with freeze-thawing. CA-074Me is a methyl ester form of the active CA-074 selective inhibitor of cathepsin B (70); CA-074Me penetrates the cell and is converted by intracellular esterases to CA-074.
Cathepsin B activity in the homogenates were monitored with Z-Arg-Arg-AMC substrate (60 μM) with buffer conditions of 40 mM citrate-phosphate, pH 5.5, 5 mM DTT, 1 mM EDTA, 100 mM NaCl, and 1.2% DMSO, followed by incubation at 37° C. for 30 minutes and reading of AMC fluorescence. CA-074-senstive activity was monitored to indicate cathepsin B activity, since CA-074 is a selective inhibitor of this enzyme (70). Protein content was measured in homogenates with the DC protein assay kit. Cathepsin B specific activity was calculated as nmol AMC/μg/min, and reported as the mean±SD (with analyses for statistical significance, p<0.05 by student's t-test).

[2] = target: T2, cathepsin C (Homo sapiens, UniProt P53634); test: Specificity of inhibitors: cathepsin C (Gly-Arg-AMC substrate); settings: pH 7.2, from IC50
T2 construct: purchased R&D Systems 1071-CY-010
Method: (§1) Specificity of inhibitors for other cysteine cathepsin proteases. The effects of Z-Arg-Lys-AOMK and Z-Glu-Lys-AOMK on cathepsin V, L, K, S, X, H and C activities were assessed. IC50 values were calculated at pH 4.6 and pH 7.2 conditions, consisting of 40 mM citrate phosphate, 1 mM EDTA, 100 mM NaCl, and 5 mM DTT. The inhibitor concentrations ranged from 16.38 μM to 256 nM with 2-fold serial dilutions. […] Cathepsin V (0.04 ng/μL), cathepsin L (0.03 ng/μL), cathepsin K (0.10 ng/μL), cathepsin S (0.20 ng/uL) were assayed with 40 μM Z-Phe-Arg-AMC. Cathepsin X (0.20 ng/uL), cathepsin C (0.51 ng/uL) and cathepsin H (0.1 ng/μL) were assayed with 40 μM of MCA-Arg-Pro-Pro-Gly-Phe-Ser-Ala-Phe-Lys(Dnp)OH (SEQ ID NO: 2), Gly-Arg-AMC, and Arg-AMC, respectively. Activation of pro-cathepsin H to cathepsin H was conducted by incubation of cathepsin H (4.4 ng/μL) with cathepsin L (1.1 ng/μL) at RT for 2 hrs in activation buffer (20 mM citrate phosphate pH 6.0, 100 mM NaCl, and 5 mM DTT). Cathepsin C (13.78 ng/μL) was activated by incubation with cathepsin L (3.4 ng/μL) at RT for one hr in activation buffer (20 mM citrate phosphate, pH 6.0, 100 mM NaCl, 5 mM DTT). […] For all assays containing peptide-AMC substrates the fluorescent microplate reader settings were the same as outlined above for cathepsin B. For the cathepsin X assay, the plate reader was set to excitation 320 nm, emission 400 nm, gain 105, top optics and read height 1 mm. To convert RFU/s to picomol/min, 10 μM to 0.005 μM (2-fold serial dilution) of MCA-Arg-Pro-Pro-Gly-Phe-Ser-Ala-Phe-Lys(Dnp)OH (SEQ ID NO: 2) was fully hydrolyzed with excess cathepsin X and a standard curve was generated using the total fluorescence values calculated at each concentration.

[3] = target: T3, cathepsin K (Homo sapiens, UniProt P43235); test: Specificity of inhibitors: cathepsin K (Z-Phe-Arg-AMC substrate); settings: cathepsin K
T3 construct: purchased Abcam ab157067
T3 sequence (P43235 115-329): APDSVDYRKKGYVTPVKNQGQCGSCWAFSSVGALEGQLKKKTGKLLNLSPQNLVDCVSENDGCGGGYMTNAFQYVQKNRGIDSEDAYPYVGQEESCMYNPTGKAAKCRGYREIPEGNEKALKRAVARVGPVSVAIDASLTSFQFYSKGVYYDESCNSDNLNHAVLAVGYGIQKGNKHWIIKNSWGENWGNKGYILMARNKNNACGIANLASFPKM
Method: as §1

[4] = target: T4, cathepsin S (Homo sapiens, UniProt P25774); test: Specificity of inhibitors: cathepsin S (Z-Phe-Arg-AMC substrate); settings: cathepsin S
T4 construct: purchased R&D Systems 1183-CY-010
Method: as §1

[5] = target: T5, cathepsin H (Homo sapiens, UniProt P09668); test: Specificity of inhibitors: cathepsin H (Arg-AMC substrate); settings: cathepsin H
T5 construct: purchased R&D Systems 75116-CY-010
Method: as §1

[6] = target: T6, cathepsin L (Homo sapiens, UniProt P07711); test: Specificity of inhibitors: cathepsin L (Z-Phe-Arg-AMC substrate); settings: cathepsin L
T6 construct: purchased R&D Systems 952-CY-010
Method: as §1

[7] = target: cathepsin X (Homo sapiens, UniProt Q9UBR2); test: Specificity of inhibitors: cathepsin X (MCA peptide substrate); settings: cathepsin X, pH 4.6
Method: as §1

[8] = target: T7, cathepsin B (Homo sapiens, UniProt P07858); test: Irreversible mechanism of inhibitors (pre-incubation, dilution, activity); settings: pH 4.6
T7 construct: purchased R&D Systems 953-CY-010
Method: Irreversible mechanism of inhibitors. The irreversible or reversible mechanism of cathepsin B inhibition was assessed for Z-Arg-Lys-AOMK and Z-Glu-Lys-AOMK inhibitors. At pH 7.2, cathepsin B was incubated with 190 nM Z-Arg-Lys-AOMK and 4.99 μM Z-Glu-Lys-AOMK for 15 min in pH 7.2 assay buffer and the assay was performed as described above for pH 4.6. Proteolytic activity was monitored for 2 hr. At pH 4.6, cathepsin B (activated, 3.7 ng/μL) was incubated with 4.24 μM Z-Arg-Lys-AOMK and 3.48 μM Z-Glu-Lys-AOMK for 15 min in 40 mM citrate phosphate pH 4.6, 1 mM EDTA, 100 mM NaCl, and 5 mM DTT; a vehicle control contained 2.5% DMSO. Each reaction was then diluted 100-fold in assay buffer such that the final assay composition was 0.04 ng/μL cathepsin B, 40 μM Z-Phe-Arg-AMC, and an inhibitor concentration of 1/10th the IC50 value.

[9] = target: T7, cathepsin B; test: Cathepsin B inhibitor kinetic characterization, fluorogenic assay with Z-Phe-Arg-AMC; settings: cathepsin B
Method: Inhibitor kinetic characterization using fluorogenic assays for cathepsin B activity. Kinetic analyses of IC50, K1, kobs, and kinact/K1 values for Z-Arg-Lys-AOMK and Z-Glu-Lys-AOMK inhibition of cathepsin B were conducted by fluorogenic proteolytic assays consisting of 40 μM Z-Phe-Arg-AMC, 40 mM citrate phosphate at pH 7.2 or pH 4.6, 1 mM EDTA, 100 mM NaCl, 5 mM DTT, and 0.01% Tween 20; assays were performed at room temperature (22-27° C.) in quadruplicate. Inhibitor and substrate were combined in the reaction well, and the assay was started upon addition of cathepsin B (0.04 ng/μL). The inhibitor concentration ranged from 5.5 μM to 1.1 nM (1.5-fold serial dilution). A vehicle control assay contained 2% DMSO instead of inhibitor. Enzyme velocity (RFU/sec) was measured during a […] incubation period as relative fluorescent units per sec (RFU/s), calculated using the highest slope recorded for 10 consecutive readings taken at 46 sec intervals (thus, activity is calculated over a total of 460 sec). Prism software was used to analyze enzyme activity data in kinetic studies. IC50 values were calculated (without preincubation of inhibitor and enzyme) as the concentration of inhibitor that reduced cathepsin B activity by 50%.
For determination of K1 and kinact/K1 kinetic inhibition constants, kobs constants were determined by plots of cathepsin B activity in time courses with different inhibitor concentrations by curve fitting slope data of RFU versus time into Y=Y0*e^(−kobs*^X), where Y0 is the activity for the control with no inhibitor condition, Y is the activity in the presence of inhibitor, X is time. K1 and kinact values were calculated from curve fitting the kobs values into the equation kobs=kinact*[I]/(K1+[I]), where [I] is inhibitor concentration, and K1 is the x-axis inhibitor concentration where y=kinact/2 and kinact is the maximum rate of inactivation at saturating inhibitor concentrations (93, 94). These kinetic analyses are for irreversible inhibitors, Z-Arg-Lys-AOMK and Z-Glu-Lys-AOMK of this study, that utilize Ki values, rather than Ki values used for reversible inhibitors (93).

[10] = target: T8, cathepsin V (Homo sapiens, UniProt O60911); test: Specificity of inhibitors: cathepsin V (Z-Phe-Arg-AMC substrate); settings: cathepsin V
T8 construct: purchased R&D Systems 1080-CY-010
Method: as §1

T4 sequence (P25774 115-331): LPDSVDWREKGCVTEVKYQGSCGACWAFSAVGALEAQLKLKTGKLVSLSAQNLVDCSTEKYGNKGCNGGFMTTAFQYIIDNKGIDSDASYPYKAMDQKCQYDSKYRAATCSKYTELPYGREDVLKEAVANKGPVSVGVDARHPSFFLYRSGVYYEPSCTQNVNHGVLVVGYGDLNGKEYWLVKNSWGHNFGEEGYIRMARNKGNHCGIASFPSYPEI
T6 sequence (P07711 114-333): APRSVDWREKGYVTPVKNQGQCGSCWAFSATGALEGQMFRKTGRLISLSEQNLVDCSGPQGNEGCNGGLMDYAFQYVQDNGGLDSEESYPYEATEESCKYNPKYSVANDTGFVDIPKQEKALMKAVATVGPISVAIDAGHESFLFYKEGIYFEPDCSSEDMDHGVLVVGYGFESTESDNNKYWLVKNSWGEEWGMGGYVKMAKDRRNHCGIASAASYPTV
T8 sequence (O60911 114-334): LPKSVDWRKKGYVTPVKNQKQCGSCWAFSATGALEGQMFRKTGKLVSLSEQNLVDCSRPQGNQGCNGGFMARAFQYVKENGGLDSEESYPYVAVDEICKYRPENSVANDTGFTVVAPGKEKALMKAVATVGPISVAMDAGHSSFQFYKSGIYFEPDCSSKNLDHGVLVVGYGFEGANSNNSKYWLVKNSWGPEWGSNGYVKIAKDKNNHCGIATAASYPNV
T5 sequence (P09668 116-335 limits assumed, other chains not shown): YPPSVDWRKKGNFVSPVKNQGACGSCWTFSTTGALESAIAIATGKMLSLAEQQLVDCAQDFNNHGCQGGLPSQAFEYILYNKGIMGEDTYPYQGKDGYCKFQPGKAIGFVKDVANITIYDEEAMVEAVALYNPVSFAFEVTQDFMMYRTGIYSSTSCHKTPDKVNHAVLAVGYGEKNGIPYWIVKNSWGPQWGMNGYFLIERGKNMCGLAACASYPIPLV
T2 sequence (P53634 25-134 limits assumed): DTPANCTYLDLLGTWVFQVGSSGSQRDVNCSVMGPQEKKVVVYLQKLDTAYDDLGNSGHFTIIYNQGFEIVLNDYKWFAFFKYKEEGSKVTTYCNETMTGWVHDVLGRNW
T2 sequence (P53634 231-394 limits assumed): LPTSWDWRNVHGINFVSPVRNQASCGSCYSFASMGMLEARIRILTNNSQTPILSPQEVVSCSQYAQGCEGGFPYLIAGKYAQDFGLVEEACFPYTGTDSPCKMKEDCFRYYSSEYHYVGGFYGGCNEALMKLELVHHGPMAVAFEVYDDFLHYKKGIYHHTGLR
T2 sequence (P53634 395-463 limits assumed): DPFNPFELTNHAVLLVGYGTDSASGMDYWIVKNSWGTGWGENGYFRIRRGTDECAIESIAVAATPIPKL
Sequence of cathepsin X (Q9UBR2 62-303): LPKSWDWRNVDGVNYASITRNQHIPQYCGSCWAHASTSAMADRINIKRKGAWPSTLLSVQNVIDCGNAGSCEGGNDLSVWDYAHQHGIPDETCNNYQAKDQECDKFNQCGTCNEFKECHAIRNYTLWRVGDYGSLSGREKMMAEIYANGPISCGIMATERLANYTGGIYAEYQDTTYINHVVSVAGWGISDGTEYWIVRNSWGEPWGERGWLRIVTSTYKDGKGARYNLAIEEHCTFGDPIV

Compound: CCCNC(=O)[C@H]1O[C@@H]1C(=O)N[C@H](C(=O)N1CCC[C@H]1C(=O)O)[C@@H](C)CC [CA-074, reference compound]
inhibition of proteolytic (cathepsin B) activity in cell lysate [1]: completely inhibited

fold more potent for cathepsin B than cathepsin C [2]: 38 fold
IC50 ([3]; pH 4.6): > 16 µM
inhibition at 16 µM ([3]; pH 4.6, 16,000 nM inhibitor): 10%
IC50 ([3]; pH 7.2): > 16 µM
IC50 ([4]; pH 4.6): > 16 µM
inhibition at 16 µM ([4]; pH 4.6, 16,000 nM inhibitor): 26%
IC50 ([4]; pH 7.2): > 16 µM
inhibition at 16 µM ([4]; pH 7.2, 16,000 nM inhibitor): 30%
IC50 ([5]; pH 4.6): > 16 µM
IC50 ([5]; pH 7.2): > 16 µM
IC50 ([6]; pH 4.6): > 16 µM
inhibition at 16 µM ([6]; pH 4.6, 16,000 nM inhibitor): 23%
IC50 [7]: > 16 µM
cathepsin B activity after pre-incubation and dilution of inhibitor [8]: no cathepsin B activity
kinact/KI ([9]; pH 4.6): 2000 M⁻¹ s⁻¹
Ki ([9]; pH 4.6, irreversible inhibitor): 7.9 µM
IC50 ([9]; pH 4.6, without preincubation): 1.1 µM
kinact/KI ([9]; pH 7.2): 8200 M⁻¹ s⁻¹
Ki ([9]; pH 7.2, irreversible inhibitor): 2.3 µM
IC50 ([9]; pH 7.2, without preincubation): 0.32 µM
IC50 ([10]; pH 7.2): > 16 µM
inhibition at 16 µM ([10]; pH 7.2, 16,000 nM inhibitor): 10%
Compound: Cc1cccc(C)c1C(=O)OCC(=O)C(CCCCN)NC(=O)C(CCC(=O)O)NC(=O)OCc1ccccc1 (stereo not drawn) [Z-Glu-Lys-AOMK]
